Laboratory results: US20230029496A1, “AMINO ACID ALTERNATIVE CURING SYSTEM” (THE TEXAS A&M UNIVERSITY SYSTEM, priority 2019, published 2023)
Where “and” joins values, the source holds several entries; their conditions need not be identical. Equal entries are not always repeated. Entries after “also recorded” stand apart in the source; their conditions may differ. Where two headings read alike, the source gives them in different places. Marks after values point to notes of the source that are not given here.

Experiments:
[1] = system: nitric oxide synthase system; conditions: pork; for Residual Nitrite, LSMean main effect of Temperature: L-arginine
Experimental: (§1) Fresh ground meat (beef, pork or poultry) was separated in ˜0.5 Kg batches and mixed with 2% salt and 10% added water. […] Each individual batch was mixed (1 min) in a food processor, removed for temperature and pH analyses and then placed into a jerky extruder tube. Approximately 25 g of sample were extruded into 50 mL centrifuge, then capped and labeled and placed into a controlled water batch and heated to a designated internal endpoint temperature (132, 158, or 165° F.).
(§2) Samples also contained 547 ppm sodium erythorbate, a cure accelerator (Phase I) and without sodium erythorbate (Phase II). Samples were placed into test tubes and heated in a controlled water bath to 132, 158 and 165° F. Samples were held in a 40° F. cooler for seven days then tested for residual nitrite. Residual nitrite was tested after deproteinization for amino acid analysis by HPLC. Determination of nitrite (UV/VIS Spectrophotometric Method) was used to detect any residual nitrite for best results in detecting minute amounts of nitrite. Residual nitrite levels were read in a 96 well plate reader at 540 nm.
(§3) Both phases of the experiment were designed as a factorial (concentration level and endpoint temperature) randomized complete block design with three replications. […] Least squares means were generated and Tukey's HSD used to determine significance at P≤0.05.

[2] = system: nitric oxide synthase system; conditions: poultry; for Residual Nitrite, LSMean main effect of Temperature: L-arginine
Experimental: as §1, §2, §3

[3] = system: NOS system; experiment: Residual nitrite in test beef frankfurters (Example 12); conditions: for Nitrite: 7 days of storage
Experimental: The remaining nonmeat ingredients were added (except the antimicrobial) and chopped at 2000 rpm for one minute. Protecta (sodium acetate antimicrobial) was added and the emulsion chopped at 4000 rpm for one minute. The emulsion was evacuated and placed into a vacuum assisted stuffer where each test emulsion was stuffed and twist linked into 22 mm cellulose casings weighing 40 g each. The frankfurter links were hung on smokehouse trucks, placed into a commercial smokehouse and thermally processed to 160° F. (Table 18).
After thermal processing and chilling (40° F.), the casings were peeled from the frankfurters and were vacuum packaged and stored under refrigerated conditions for residual nitrite and nitrosylation. […] This was done to determine if the L-arginine could the NOS system to generate sufficient NO for cure color development and residual nitrite for antioxidant and antimicrobial effect.

[4] = system: nitric oxide synthase system; experiment: Residual nitrite equivalency scale, key findings across all species (Example 26)
[5] = Phase I, with 547 ppm sodium erythorbate, 4000 ppm L-arginine
[6] = Phase I, with 547 ppm sodium erythorbate, 4000 ppm L-arginine, 132° F.
[7] = Phase I, with 547 ppm sodium erythorbate, 4000 ppm L-arginine, 158° F.
[8] = Phase I, with 547 ppm sodium erythorbate, 4000 ppm L-arginine, 165° F.
[9] = Phase I, with 547 ppm sodium erythorbate, 5000 ppm L-arginine
[10] = Phase I, with 547 ppm sodium erythorbate, 5000 ppm L-arginine, 132° F.
[11] = Phase I, with 547 ppm sodium erythorbate, 5000 ppm L-arginine, 158° F.
[12] = Phase I, with 547 ppm sodium erythorbate, 5000 ppm L-arginine, 165° F.
[13] = Phase I, with 547 ppm sodium erythorbate, 132° F.
[14] = Phase I, with 547 ppm sodium erythorbate, 158° F.
[15] = Phase I, with 547 ppm sodium erythorbate, 165° F.
[16] = Phase II, without 547 ppm sodium erythorbate, 1000 ppm L-arginine
[17] = Phase II, without 547 ppm sodium erythorbate, 1000 ppm L-arginine, 132° F.
[18] = Phase II, without 547 ppm sodium erythorbate, 1000 ppm L-arginine, 158° F.
[19] = Phase II, without 547 ppm sodium erythorbate, 1000 ppm L-arginine, 165° F.
[20] = Phase II, without 547 ppm sodium erythorbate, 2000 ppm L-arginine
[21] = Phase II, without 547 ppm sodium erythorbate, 2000 ppm L-arginine, 132° F.
[22] = Phase II, without 547 ppm sodium erythorbate, 2000 ppm L-arginine, 158° F.
[23] = Phase II, without 547 ppm sodium erythorbate, 2000 ppm L-arginine, 165° F.
[24] = Phase II, without 547 ppm sodium erythorbate, 3000 ppm L-arginine
[25] = Phase II, without 547 ppm sodium erythorbate, 3000 ppm L-arginine, 132° F.
[26] = Phase II, without 547 ppm sodium erythorbate, 3000 ppm L-arginine, 158° F.
[27] = Phase II, without 547 ppm sodium erythorbate, 3000 ppm L-arginine, 165° F.
[28] = Phase II, without 547 ppm sodium erythorbate, 4000 ppm L-arginine
[29] = Phase II, without 547 ppm sodium erythorbate, 4000 ppm L-arginine, 132° F.
[30] = Phase II, without 547 ppm sodium erythorbate, 4000 ppm L-arginine, 158° F.
[31] = Phase II, without 547 ppm sodium erythorbate, 4000 ppm L-arginine, 165° F.
[32] = Phase II, without 547 ppm sodium erythorbate, 5000 ppm L-arginine
[33] = Phase II, without 547 ppm sodium erythorbate, 5000 ppm L-arginine, 132° F.
[34] = Phase II, without 547 ppm sodium erythorbate, 5000 ppm L-arginine, 158° F.
[35] = Phase II, without 547 ppm sodium erythorbate, 5000 ppm L-arginine, 165° F.
[36] = Phase II, without 547 ppm sodium erythorbate, 132° F.
[37] = Phase II, without 547 ppm sodium erythorbate, 158° F.
[38] = Phase II, without 547 ppm sodium erythorbate, 165° F.

N=C(N)NCCC[C@H](N)C(=O)O [L-arginine]
Residual Nitrite, LSMean main effect of Concentration [1, 5]: 52.07 ppm
Residual Nitrite, LSMean Conc × Temp [1, 6]: 48.21 ppm
Residual Nitrite, LSMean Conc × Temp [1, 7]: 52.12 ppm
Residual Nitrite, LSMean Conc × Temp [1, 8]: 55.87 ppm
Residual Nitrite, LSMean main effect of Concentration [1, 9]: 64.52 ppm
Residual Nitrite, LSMean Conc × Temp [1, 10]: 40.28 ppm
Residual Nitrite, LSMean Conc × Temp [1, 11]: 65.12 ppm
Residual Nitrite, LSMean Conc × Temp [1, 12]: 88.16 ppm
Residual Nitrite, LSMean main effect of Temperature [1, 13]: 53.72 ppm
Residual Nitrite, LSMean main effect of Temperature [1, 14]: 63.29 ppm
Residual Nitrite, LSMean main effect of Temperature [1, 15]: 65.72 ppm
Residual Nitrite, LSMean main effect of Concentration [1, 16]: 73.46^b ppm and 73.46 ppm
Residual Nitrite, LSMean Conc × Temperature [1, 17]: 53.73^c ppm
Residual Nitrite, LSMean Conc × Temperature [1, 18]: 84.43^bc ppm
Residual Nitrite, LSMean Conc × Temperature [1, 19]: 82.22^bc ppm
Residual Nitrite, LSMean main effect of Concentration [1, 20]: 94.97^ab ppm and 94.97 ppm
Residual Nitrite, LSMean Conc × Temperature [1, 21]: 85.87^bc ppm
Residual Nitrite, LSMean Conc × Temperature [1, 22]: 113.28^ab ppm
Residual Nitrite, LSMean Conc × Temperature [1, 23]: 85.76^bc ppm
Residual Nitrite, LSMean main effect of Concentration [1, 24]: 85.31^ab ppm and 85.31 ppm
Residual Nitrite, LSMean Conc × Temperature [1, 25]: 68.26^bc ppm
Residual Nitrite, LSMean Conc × Temperature [1, 26]: 90.54^bc ppm
Residual Nitrite, LSMean Conc × Temperature [1, 27]: 97.13^bc ppm
Residual Nitrite, LSMean main effect of Concentration [1, 28]: 102.65^a ppm and 102.65 ppm
Residual Nitrite, LSMean Conc × Temperature [1, 29]: 71.48^bc ppm
Residual Nitrite, LSMean Conc × Temperature [1, 30]: 150.78^a ppm
Residual Nitrite, LSMean Conc × Temperature [1, 31]: 85.70^bc ppm
Residual Nitrite, LSMean main effect of Concentration [1, 32]: 72.06^b ppm and 72.06 ppm
Residual Nitrite, LSMean Conc × Temperature [1, 33]: 59.74^c ppm
Residual Nitrite, LSMean Conc × Temperature [1, 34]: 77.63^bc ppm
Residual Nitrite, LSMean Conc × Temperature [1, 35]: 78.82^bc ppm
Residual Nitrite, LSMean main effect of Temperature [1, 36]: 67.81^c ppm and 67.81 ppm
Residual Nitrite, LSMean main effect of Temperature [1, 37]: 103.33^a ppm and 103.33 ppm
Residual Nitrite, LSMean main effect of Temperature [1, 38]: 85.93^b ppm and 85.93 ppm
Residual Nitrite, LSMean main effect of Concentration ([2]; Phase I, with 547 ppm sodium erythorbate, 1000 ppm L-arginine): 65.44^ab ppm and 65.44 ppm
Residual Nitrite, LSMean Conc × Temp ([2]; Phase I, with 547 ppm sodium erythorbate, 1000 ppm L-arginine, 132° F.): 76.46^ab ppm
Residual Nitrite, LSMean Conc × Temp ([2]; Phase I, with 547 ppm sodium erythorbate, 1000 ppm L-arginine, 158° F.): 60.52^abc ppm
Residual Nitrite, LSMean Conc × Temp ([2]; Phase I, with 547 ppm sodium erythorbate, 1000 ppm L-arginine, 165° F.): 59.36^abc ppm
Residual Nitrite, LSMean main effect of Concentration ([2]; Phase I, with 547 ppm sodium erythorbate, 2000 ppm L-arginine): 72.28^a ppm and 72.28 ppm
Residual Nitrite, LSMean Conc × Temp ([2]; Phase I, with 547 ppm sodium erythorbate, 2000 ppm L-arginine, 132° F.): 63.44^abc ppm
Residual Nitrite, LSMean Conc × Temp ([2]; Phase I, with 547 ppm sodium erythorbate, 2000 ppm L-arginine, 158° F.): 77.50^a ppm
Residual Nitrite, LSMean Conc × Temp ([2]; Phase I, with 547 ppm sodium erythorbate, 2000 ppm L-arginine, 165° F.): 75.91^ab ppm
Residual Nitrite, LSMean main effect of Concentration ([2]; Phase I, with 547 ppm sodium erythorbate, 3000 ppm L-arginine): 54.95^bc ppm and 54.95 ppm
Residual Nitrite, LSMean Conc × Temp ([2]; Phase I, with 547 ppm sodium erythorbate, 3000 ppm L-arginine, 132° F.): 60.08^abc ppm
Residual Nitrite, LSMean Conc × Temp ([2]; Phase I, with 547 ppm sodium erythorbate, 3000 ppm L-arginine, 158° F.): 65.81^abc ppm
Residual Nitrite, LSMean Conc × Temp ([2]; Phase I, with 547 ppm sodium erythorbate, 3000 ppm L-arginine, 165° F.): 38.96^cd ppm
Residual Nitrite, LSMean main effect of Concentration [2, 5]: 48.16^cd ppm and 48.16 ppm
Residual Nitrite, LSMean Conc × Temp [2, 6]: 50.99^a-d ppm
Residual Nitrite, LSMean Conc × Temp [2, 7]: 49.31^a-d ppm
Residual Nitrite, LSMean Conc × Temp [2, 8]: 44.17^cd ppm
Residual Nitrite, LSMean main effect of Concentration [2, 9]: 38.14^d ppm and 38.14 ppm
Residual Nitrite, LSMean Conc × Temp [2, 10]: 41.15^cd ppm
Residual Nitrite, LSMean Conc × Temp [2, 11]: 25.07^d ppm
Residual Nitrite, LSMean Conc × Temp [2, 12]: 48.20^bcd ppm
Residual Nitrite, LSMean main effect of Temperature [2, 13]: 48.43 ppm
Residual Nitrite, LSMean main effect of Temperature [2, 14]: 55.64 ppm
Residual Nitrite, LSMean main effect of Temperature [2, 15]: 53.32 ppm
Residual Nitrite, LSMean main effect of Concentration [2, 16]: 65.37^a ppm and 65.44 ppm
Residual Nitrite, LSMean Conc × Temperature [2, 17]: 87.36^a ppm
Residual Nitrite, LSMean Conc × Temperature [2, 18]: 63.54^ab ppm
Residual Nitrite, LSMean Conc × Temperature [2, 19]: 45.19^ab ppm
Residual Nitrite, LSMean main effect of Concentration [2, 20]: 66.58^a ppm and 72.28 ppm
Residual Nitrite, LSMean Conc × Temperature [2, 21]: 65.60^ab ppm
Residual Nitrite, LSMean Conc × Temperature [2, 22]: 61.51^ab ppm
Residual Nitrite, LSMean Conc × Temperature [2, 23]: 72.63^ab ppm
Residual Nitrite, LSMean main effect of Concentration [2, 24]: 57.60^ab ppm and 54.95 ppm
Residual Nitrite, LSMean Conc × Temperature [2, 25]: 53.90^ab ppm
Residual Nitrite, LSMean Conc × Temperature [2, 26]: 73.59^a ppm
Residual Nitrite, LSMean Conc × Temperature [2, 27]: 45.32^ab ppm
Residual Nitrite, LSMean main effect of Concentration [2, 28]: 60.63^ab ppm and 48.16 ppm
Residual Nitrite, LSMean Conc × Temperature [2, 29]: 67.76^ab ppm
Residual Nitrite, LSMean Conc × Temperature [2, 30]: 52.15^ab ppm
Residual Nitrite, LSMean Conc × Temperature [2, 31]: 61.99^ab ppm
Residual Nitrite, LSMean main effect of Concentration [2, 32]: 45.02^b ppm and 38.14 ppm
Residual Nitrite, LSMean Conc × Temperature [2, 33]: 53.87^ab ppm
Residual Nitrite, LSMean Conc × Temperature [2, 34]: 30.83^b ppm
Residual Nitrite, LSMean Conc × Temperature [2, 35]: 50.37^ab ppm
Residual Nitrite, LSMean main effect of Temperature [2, 36]: 65.70 ppm
Residual Nitrite, LSMean main effect of Temperature [2, 37]: 56.32^ ppm and 56.32 ppm
Residual Nitrite, LSMean main effect of Temperature [2, 38]: 55.10 ppm
Nitrite ([3]; 1000 ppm L-arginine with 547 ppm sodium erythorbate): 13 ppm and 13.43^bc ppm
Nitrite ([3]; 1000 ppm L-arginine, no cure accelerator): 8.02^d ppm
Nitrite ([3]; 5000 ppm L-arginine with 547 ppm sodium erythorbate): 16 ppm and 15.87^b ppm
Nitrite ([3]; 5000 ppm L-arginine, no cure accelerator): 10.64^cd ppm
residual nitrite levels ([3]; range over L-arginine treated frankfurters after 7 days of storage): 8.02 to 15.87 ppm
residual nitrite values compared to sodium nitrite concentrations of 120, 156 and 200 ppm ([4]; L-arginine 1000, 2000 and 3000 ppm, with sodium erythorbate, except poultry at 200 ppm sodium nitrite): comparable
residual nitrite values compared to lower L-arginine concentrations ([4]; L-arginine 4000 and 5000 ppm, with sodium erythorbate): lower residual nitrite values
residual nitrite values compared to sodium nitrite treated samples ([4]; no cure accelerator (sodium erythorbate) included): consistently lower; also recorded: lower residual nitrite values
